Measurements: patent US20220243211A1, “PEPTIDE NUCLEIC ACID COMPOSITIONS WITH MODIFIED HOOGSTEEN BINDING SEGMENTS AND METHODS OF USE THEREOF” (Yale University, priority 2019, published 2022)

Legend:
[1] = Zeta potential and hydrodynamic diameter of formulated NPs by dynamic light scattering; type: physicochemical; details: NPs containing PNA/donor DNA, PBS buffer, n = 3; for Z Av Diameter: dynamic light scattering
Description: Blank NPs containing no PNA and a mismatch donor DNA as a control were prepared as a control. The mismatched donor DNA was purposely added into blank NPs because addition of donor DNA helps to produce a similar surface charge on the control NPs as on the test NPs encapsulated with PNA/donor DNA combinations. […] All NP in the diameters were in the range of 200-350 nm, as measured by dynamic light scattering (Table 1), consistent with previous measurements (McNeer, et al., Nat Commun 6, 6952 (2015), Fields, et al., Adv Healthc Mater 4, 361-366 (2015), Fields, et al., J Control Release 164, 41-48 (2012)). PNA/DNA-loaded NPs were cationic (Fields, et al., Adv Healthc Mater 4, 361-366 (2015), Fields, et al., J Control Release 164, 41-48 (2012)) for PBAE/PLGA/MPG NPs (Table 1).

[2] = test system: F508del CFTR gene in CFBE cells; assay: Allele-specific PCR for gene modification; type: cell-based, human; details: CFBE cells treated with PNA/donor DNA NPs
Description: Genomic DNA was harvested from cells and purified using the Wizard Genomic DNA Purification kit (Promega, Madison Wis.). Equal amounts of genomic DNA from each sample were subjected to allele-specific PCR (ASPCR), with a gene-specific reverse primer, and an allele-specific forward primer. PCR was performed using a Eppendorf master cycler X50. PCR products were separated on a 1% agarose gel and visualized using a gel imager.
AS-PCR conditions are as follows. Platinum Taq polymerase (Invitrogen, Carlsbad Calif.) was used for PCR reactions: 5 uL betaine, 4.25 uL water, 2.5 uL 10× Platinum Taq PCR buffer, 1.25 uL 50 mM MgCl2, 0.5 uL dNTPs, 0.5 uL each primer at 10 uM, 0.5 uL Platinum Taq polymerase, and 10 uL of genomic DNA at 40 ng/uL. PCR cycler conditions for human CFTR were as follows: 95° C. 2 min, 94° C. 30 sec, 69° C. 1 min, 72° C. 1 min, 94° C. 30 sec, 68° C. 1 min, 72° C. 1 min, 94° C. 30 sec, 67° C. 1 min, 72° C. 1 min, 94° C. 30 sec, 66° C. 1 min, 72° C. 1 min, 94° C. 30 sec, 65° C. 1 min, 72° C. 1 min, [94° C. 30 sec, 65° C. 1 min, 72° C. 1 min]×35 cycles, 72° C. 2 min, hold at 4° C. 1.
Gene-specific reverse primer: (reverse complement starting from nt 80162): 5′ […]

human CFBE cells = assay: MQAE cAMP-stimulated chloride efflux assay; type: cell-based
Source text: FIG. 3 is a bar graph showing chloride efflux measured using fluorescent indicator dye N-[ethoxycarbonylmethyl]-6-methoxy-quinolinium bromide (MQAE), in untreated human CFBE cells and those treated with NPs, and those treated with blank particles. One way ANOVA with multiple comparisons was used to analyze chloride efflux in untreated CF cells, blank particle treated CF cells, PNA/DNA particle treated cells and normal human bronchial epithelial cells (16HBE14o-).
CFBE cells (CFBE41o-) and human bronchial epithelial cells (16HBE14o-) (Gruenert, et al., J Cyst Fibros 3 Suppl 2, 191-196 (2004)) were grown with EMEM (Corning) with 10% FBS, 20 mM L-glutamine, and Pen/Strep. Once grown to confluence, cells were trypsinized by first washing with PBS, then adding 0.25% trypsin for 5 minutes, and harvesting with culture media. Once grown to confluence, cells were trypsinized by first washing with 0.05% trypsin, then adding 0.25% trypsin for 5 minutes, and harvesting with RPMI medium with 10% FBS. Cells were frozen in 5% DMSO in culture medium as necessary. NPs were suspended in culture media by vigorous vortexing and water sonication, then added directly to cells at concentrations of 2 mg/mL×10^6 cells (corresponding to approximately 10^9 PNA/DNA molecules delivered to each cell assuming 100% efficiency).
Glass coverslips (22×50 mm) were sterilized by dipping in 70% EtOH and were subsequently placed in 60 mm cell culture dishes (3 per dish.) The plates were exposed to UV irradiation overnight. Cells (˜1×10^6) were seeded in the dish and the cells grew to confluence in MEM media containing 10% FBS, L-glutamine, and pen/strep. At least 12 hours before the experiment, the cells were fed with MEM media containing 5% FBS, L-glutamine, and pen/strep. The experiment was run as previously described (Shenoy, et al., Pediatric research 70, 447-452 (2011)). Briefly, cells were incubated with N-[ethoxycarbonylmethyl]-6-methoxy-quinolinium bromide (MQAE, Invitrogen) in DMSO (100 uL, 30 mM suspended in HEPES Cl solution) for 30 minutes at 37° C. […] MQAE was excited at 354±10 nm and the emitted fluorescence of at least 20 cells was measured at 460±10 nm every five seconds for two minutes. […] The rate of change in MQAE fluorescence (Δarbitrary fluorescence units/sec) was used to calculate Cl^− efflux.
To compare the activity of unmodified (classic) and γPNA treatments on gene editing in human CFBE cells, the cells were treated with either PLGA NPs containing no PNA/mismatched donor DNA (referred to as blank NP), PLGA NPs containing hCF-PNA/donor DNA, PBAE/PLGA/MPG NPs containing hCF-PNA/donor DNA and PBAE/PLGA/MPG NPs containing γhCF-PNA-h/donor DNA. After treatment of the cells, cAMP-stimulated chloride efflux was quantified using the MQAE assay (McNeer, et al., Nat Commun 6, 6952 (2015)). […]

[3] = PBAE/PLGA/MPG NPs with PNA/donor DNA

| Substance | Zeta Potential [1] [mV] | Z Av Diameter [1] [nm] | gene modification by allele-specific PCR [2] | chloride efflux (human CFBE cells; [3]) | chloride efflux (human CFBE cells; PLGA NPs with PNA/donor DNA) | chloride efflux compared to untreated cells or blank NPs (human CFBE cells; [3]) [fold] |
| --- | --- | --- | --- | --- | --- | --- |
| H-KKK-TJTJJTTT-OOO-TTTCCTCTATGGGTAAG-KKK-NH2 [hCF PNA] (TNTNNTTTTTTCCTCTATGGGTAAG; listed as DNA, chemistry not fully specified) | 14.2 | 291.7 | had the desired gene modification | further enhanced | marked increase in chloride efflux |  |
| H-KKK-TJTJJTTT-OOO-TTTCCTCTATGGGTAAG-KKK-NH2 [γhCF PNA-h] (TNTNNTTTTTTCCTCTATGGGTAAG; listed as DNA, chemistry not fully specified) [tail clamp PNA targeting human CFTR gene with MPγ monomers in Hoogsteen domain] | 13.3 | 293.2 | had the desired gene modification | no different than non-CF affected HBE cells |  | 7 |
